Experimental findings from article PMC5218480 (PLoS ONE, 2017) are described below.

The assay concerns MV-4-11 cells. Put plainly: Gene expression microarray analysis (Affymetrix PrimeView) and GSEA. In kind it is cell-based, human. The arrangement: RFU PODN (11730768_x_at) / Fold change /veh PODN (11730768_x_at) / RFU LINC00158 (11744669_a_at) / Fold change /veh LINC00158 (11744669_a_at) / RFU DUSP10 (11751237_a_at) / Fold change /veh DUSP10 (11751237_a_at) / RFU ID3 (11757404_x_at) / Fold change /veh ID3 (11757404_x_at) / RFU PLEKHG5 (11737974_s_at) / Fold change /veh PLEKHG5 (11737974_s_at) / RFU LRRC4B (11730491_at) / Fold change /veh LRRC4B (11730491_at) / RFU GIMAP4 (11747438_a_at) / Fold change /veh GIMAP4 (11747438_a_at) / RFU KRT8 (11758183_x_at) / Fold change /veh KRT8 (11758183_x_at) / RFU CNN1 (11734310_a_at) / Fold change /veh CNN1 (11734310_a_at) / RFU VPS37D (11726825_at) / Fold change /veh VPS37D (11726825_at) / RFU C10orf10 (11716522_x_at) / Fold change /veh C10orf10 (11716522_x_at) / RFU KIR2DL2 /// KIR2DL4 /// KIR2DL5A /// KIR2DL5B /// KIR2DS1 /// KIR2DS2 /// KIR2DS3 /// KIR2DS4 /// KIR3DL3 /// KIR3DL3 /// KIR3DS1 (11738374_at) / Fold change /veh KIR2DL2 /// KIR2DL4 /// KIR2DL5A /// KIR2DL5B /// KIR2DS1 /// KIR2DS2 /// KIR2DS3 /// KIR2DS4 /// KIR3DL3 /// KIR3DL3 /// KIR3DS1 (11738374_at) / RFU C1QL1 (11718748_at) / Fold change /veh C1QL1 (11718748_at) / RFU TMPRSS4 (11747572_a_at) / Fold change /veh TMPRSS4 (11747572_a_at) / RFU HAMP (11756126_x_at) / Fold change /veh HAMP (11756126_x_at) / RFU RNFT2 (11725882_a_at) / Fold change /veh RNFT2 (11725882_a_at) / RFU NR4A2 (11747474_a_at) / Fold change /veh NR4A2 (11747474_a_at) / RFU ABCC12 (11746883_a_at) / Fold change /veh ABCC12 (11746883_a_at) / RFU TMEM136 (11760407_x_at) / Fold change /veh TMEM136 (11760407_x_at) / RFU CLDN22 /// WWC2 (11732394_at) / Fold change /veh CLDN22 /// WWC2 (11732394_at) / RFU HLA-DPB1 (11760878_x_at) / Fold change /veh HLA-DPB1 (11760878_x_at) / RFU SPINT1 (11716480_a_at) / Fold change /veh SPINT1 (11716480_a_at) / RFU GAP43 (11754022_s_at) / Fold change /veh GAP43 (11754022_s_at) / RFU A4GNT (11735810_at) / Fold change /veh A4GNT (11735810_at) / RFU PRB3 (11715151_x_at) / Fold change /veh PRB3 (11715151_x_at) / RFU TUBB4B (11761932_at) / Fold change /veh TUBB4B (11761932_at) / RFU CAPN14 (11732068_a_at) / Fold change /veh CAPN14 (11732068_a_at) / RFU TMCC2 (11721928_a_at) / Fold change /veh TMCC2 (11721928_a_at) / RFU IRGQ (11745062_a_at) / Fold change /veh IRGQ (11745062_a_at) / RFU FAM174B (11720279_a_at) / Fold change /veh FAM174B (11720279_a_at) / RFU TMPRSS4 (11748680_a_at) / Fold change /veh TMPRSS4 (11748680_a_at) / RFU FAM212B (11763350_a_at) / Fold change /veh FAM212B (11763350_a_at) / RFU PLEKHG5 (11743358_a_at) / Fold change /veh PLEKHG5 (11743358_a_at) / RFU ZSCAN30 (11745921_a_at) / Fold change /veh ZSCAN30 (11745921_a_at) / RFU CMKLR1 (11741424_a_at) / Fold change /veh CMKLR1 (11741424_a_at) / RFU LOC101060620 /// MAPK8IP1 (11723275_at) / Fold change /veh LOC101060620 /// MAPK8IP1 (11723275_at) / RFU SPTSSB (11747773_x_at) / Fold change /veh SPTSSB (11747773_x_at) / RFU PRSS12 (11739890_at) / Fold change /veh PRSS12 (11739890_at) / RFU BIN1 (11741810_x_at) / Fold change /veh BIN1 (11741810_x_at) / RFU WNT11 (11732464_a_at) / Fold change /veh WNT11 (11732464_a_at) / RFU C10orf10 (11716521_a_at) / Fold change /veh C10orf10 (11716521_a_at) / RFU C5orf56 (11738089_at) / Fold change /veh C5orf56 (11738089_at) / RFU CYB561 (11721691_x_at) / Fold change /veh CYB561 (11721691_x_at) / RFU ANKRD19P (11752326_a_at) / Fold change /veh ANKRD19P (11752326_a_at) / RFU OR2T12 /// OR2T33 /// OR2T8 (11738714_s_at) / Fold change /veh OR2T12 /// OR2T33 /// OR2T8 (11738714_s_at) / RFU VCAN (11748164_a_at) / Fold change /veh VCAN (11748164_a_at) / RFU JSRP1 (11732532_at) / Fold change /veh JSRP1 (11732532_at) / RFU KRTAP10-11 (11738290_x_at) / Fold change /veh KRTAP10-11 (11738290_x_at) / RFU MYO3A (11730013_a_at) / Fold change /veh MYO3A (11730013_a_at) / RFU EBF3 (11725865_a_at) / Fold change /veh EBF3 (11725865_a_at) / RFU CAMK2N1 (11719241_x_at) / Fold change /veh CAMK2N1 (11719241_x_at) / RFU C5orf56 (11738088_a_at) / Fold change /veh C5orf56 (11738088_a_at) / RFU OLFML3 (11715873_a_at) / Fold change /veh OLFML3 (11715873_a_at) / RFU LOC100653217 /// NTM (11731650_a_at) / Fold change /veh LOC100653217 /// NTM (11731650_a_at) / RFU MAPK11 (11762145_a_at) / Fold change /veh MAPK11 (11762145_a_at) / RFU FIZ1 (11724087_x_at) / Fold change /veh FIZ1 (11724087_x_at) / RFU OASL (11726364_x_at) / Fold change /veh OASL (11726364_x_at) / RFU SOX15 (11748057_x_at) / Fold change /veh SOX15 (11748057_x_at) / RFU CD79A (11719716_a_at) / Fold change /veh CD79A (11719716_a_at) / RFU HIST1H1D (11736915_at) / Fold change /veh HIST1H1D (11736915_at) / RFU CASKIN2 (11723855_a_at) / Fold change /veh CASKIN2 (11723855_a_at) / RFU LOC730098 (11760151_x_at) / Fold change /veh LOC730098 (11760151_x_at) / RFU OR4N2 (11742367_at) / Fold change /veh OR4N2 (11742367_at) / RFU PRRT2 (11749266_a_at) / Fold change /veh PRRT2 (11749266_a_at) / RFU SNX32 (11753110_a_at) / Fold change /veh SNX32 (11753110_a_at) / RFU CDHR5 (11726645_a_at) / Fold change /veh CDHR5 (11726645_a_at) / RFU RCAN1 (11760418_a_at) / Fold change /veh RCAN1 (11760418_a_at) / RFU FAM167A (11723789_a_at) / Fold change /veh FAM167A (11723789_a_at) / RFU FAM26E (11764081_at) / Fold change /veh FAM26E (11764081_at) / RFU ISYNA1 (11749810_s_at) / Fold change /veh ISYNA1 (11749810_s_at) / RFU ACY1 (11761880_at) / Fold change /veh ACY1 (11761880_at) / RFU 11764098_at / Fold change /veh 11764098_at / RFU SAMD14 (11745864_x_at) / Fold change /veh SAMD14 (11745864_x_at) / RFU NPB (11741838_a_at) / Fold change /veh NPB (11741838_a_at) / RFU TMPRSS6 (11731388_a_at) / Fold change /veh TMPRSS6 (11731388_a_at) / RFU KRTAP10-2 (11738614_at) / Fold change /veh KRTAP10-2 (11738614_at) / RFU ARHGAP8 /// PRR5-ARHGAP8 (11727945_x_at) / Fold change /veh ARHGAP8 /// PRR5-ARHGAP8 (11727945_x_at) / RFU KRTAP5-7 /// NADSYN1 (11734609_at) / Fold change /veh KRTAP5-7 /// NADSYN1 (11734609_at) / RFU RASL12 (11751679_a_at) / Fold change /veh RASL12 (11751679_a_at) / RFU CDKN2B (11736163_a_at) / Fold change /veh CDKN2B (11736163_a_at) / RFU PRF1 (11729649_at) / Fold change /veh PRF1 (11729649_at) / RFU, ZNF638 /// ZNF638-IT1 / Fold change vs veh, ZNF638 /// ZNF638-IT1 / RFU, PANK3 / Fold change vs veh, PANK3 / RFU, SH3YL1 / Fold change vs veh, SH3YL1 / RFU, ZEB2 / Fold change vs veh, ZEB2 / RFU, NRIP1 / Fold change vs veh, NRIP1 / RFU, PTTG1IP / Fold change vs veh, PTTG1IP / RFU, CAPN2 / Fold change vs veh, CAPN2 / RFU, MED14 / Fold change vs veh, MED14 / RFU, SNORA58 / Fold change vs veh, SNORA58 / RFU, C1orf63 / Fold change vs veh, C1orf63 / RFU, LRRFIP1 / Fold change vs veh, LRRFIP1 / RFU, NDUFAF7 / Fold change vs veh, NDUFAF7 / RFU, SLC12A2 / Fold change vs veh, SLC12A2 / RFU, IBTK / Fold change vs veh, IBTK / RFU, ESF1 / Fold change vs veh, ESF1 / Fold change vs veh, TMEM50B / RFU, TAOK1 / Fold change vs veh, TAOK1 / RFU, ACBD3 / Fold change vs veh, ACBD3 / RFU, TMA16 / Fold change vs veh, TMA16 / RFU, RWDD3 / Fold change vs veh, RWDD3 / RFU, BCAT1 / Fold change vs veh, BCAT1 / RFU, EDEM3 / Fold change vs veh, EDEM3 / RFU, TMEM33 / Fold change vs veh, TMEM33 / RFU, WDR75 / Fold change vs veh, WDR75 / RFU, AHCTF1 / Fold change vs veh, AHCTF1 / RFU, TFRC / Fold change vs veh, TFRC / RFU, ZDHHC17 / Fold change vs veh, ZDHHC17 / RFU, NOM1 / Fold change vs veh, NOM1 / RFU, ARL8B / Fold change vs veh, ARL8B / RFU, ZBTB11 / Fold change vs veh, ZBTB11 / RFU, TAMM41 / Fold change vs veh, TAMM41 / RFU, KIAA1704 /// LOC100996395 / Fold change vs veh, KIAA1704 /// LOC100996395 / RFU, ING1 / Fold change vs veh, ING1 / RFU, TRMT61B / Fold change vs veh, TRMT61B / RFU, FUBP3 / Fold change vs veh, FUBP3 / RFU, TP53 / Fold change vs veh, TP53 / RFU, TNKS2 / Fold change vs veh, TNKS2 / RFU, ZFP14 / Fold change vs veh, ZFP14 / RFU, ACTR2 / Fold change vs veh, ACTR2 / RFU, PPP3R1 / Fold change vs veh, PPP3R1 / RFU, PIK3R1 / Fold change vs veh, PIK3R1 / RFU, HNRNPA1 / Fold change vs veh, HNRNPA1 / RFU, RNF170 / Fold change vs veh, RNF170 / RFU, ZNF28 / Fold change vs veh, ZNF28 / RFU, RNGTT / Fold change vs veh, RNGTT / RFU, OGT / Fold change vs veh, OGT / RFU, BRD1 / Fold change vs veh, BRD1 / RFU, MARS / Fold change vs veh, MARS / RFU, ZNF655 / Fold change vs veh, ZNF655 / RFU, FAHD1 / Fold change vs veh, FAHD1 / RFU, BDP1 / Fold change vs veh, BDP1 / RFU, LRRCC1 / Fold change vs veh, LRRCC1 / RFU, ARID1A / Fold change vs veh, ARID1A / RFU, ZNF146 / Fold change vs veh, ZNF146 / RFU, ZNF330 / Fold change vs veh, ZNF330 / RFU, GPN3 / Fold change vs veh, GPN3 / RFU, C9orf123 / Fold change vs veh, C9orf123 / RFU, N4BP2L2 / Fold change vs veh, N4BP2L2 / RFU, ARFIP1 / Fold change vs veh, ARFIP1 / RFU, FAM179B / Fold change vs veh, FAM179B / RFU, BCL10 / Fold change vs veh, BCL10 / RFU, UHRF1BP1L / Fold change vs veh, UHRF1BP1L / RFU, BET1 / Fold change vs veh, BET1 / RFU, CNOT2 / Fold change vs veh, CNOT2 / RFU, ZNF268 / Fold change vs veh, ZNF268 / Fold change vs veh, ZNF507 / RFU, DGCR2 / Fold change vs veh, DGCR2 / RFU, WDSUB1 / Fold change vs veh, WDSUB1 / Fold change vs veh, HSP90B1 /// MIR3652 / RFU, ADSS / Fold change vs veh, ADSS / RFU, GK / Fold change vs veh, GK / RFU, ZNF148 / Fold change vs veh, ZNF148 / RFU, TAF9 / Fold change vs veh, TAF9 / RFU, SLC1A5 / Fold change vs veh, SLC1A5 / RFU, SLMO2 / Fold change vs veh, SLMO2 / RFU, ABCC4 / Fold change vs veh, ABCC4 / RFU, LOC101060439 /// RAP1B / Fold change vs veh, LOC101060439 /// RAP1B / RFU, RFX7 / Fold change vs veh, RFX7 / RFU, GTPBP10 / Fold change vs veh, GTPBP10 / RFU, CNEP1R1 / Fold change vs veh, CNEP1R1 / RFU, BIVM-ERCC5 /// ERCC5 / Fold change vs veh, BIVM-ERCC5 /// ERCC5 / RFU, ILF3 / Fold change vs veh, ILF3 / RFU 11762660_at / Fold change /veh 11762660_at / RFU VCAN (11757783_s_at) / Fold change /veh VCAN (11757783_s_at) / RFU DDX43 (11728927_at) / Fold change /veh DDX43 (11728927_at) / RFU KRT8 (11758188_x_at) / Fold change /veh KRT8 (11758188_x_at) / RFU NKD1 (11759106_at) / Fold change /veh NKD1 (11759106_at) / RFU SRD5A1 (11742802_a_at) / Fold change /veh SRD5A1 (11742802_a_at) / RFU TPSAB1 /// TPSB2 (11721975_s_at) / Fold change /veh TPSAB1 /// TPSB2 (11721975_s_at) / RFU GSTM3 (11746129_a_at) / Fold change /veh GSTM3 (11746129_a_at) / RFU IL23R (11737362_x_at) / Fold change /veh IL23R (11737362_x_at) / RFU TMEM51 (11727254_a_at) / Fold change /veh TMEM51 (11727254_a_at) / RFU PIWIL2 (11732686_x_at) / Fold change /veh PIWIL2 (11732686_x_at) / RFU ORM1 (11744905_x_at) / Fold change /veh ORM1 (11744905_x_at) / RFU CCDC152 (11743942_at) / Fold change /veh CCDC152 (11743942_at) / RFU ECM1 (11717891_a_at) / Fold change /veh ECM1 (11717891_a_at) / RFU IL23R (11748794_a_at) / Fold change /veh IL23R (11748794_a_at) / RFU TNFAIP8L3 (11732012_x_at) / Fold change /veh TNFAIP8L3 (11732012_x_at) / RFU MBOAT4 (11741988_at) / Fold change /veh MBOAT4 (11741988_at) / RFU 11764193_at / Fold change /veh 11764193_at / RFU TMEM53 (11763286_at) / Fold change /veh TMEM53 (11763286_at) / RFU MAGEB2 (11727129_at) / Fold change /veh MAGEB2 (11727129_at) / RFU TMEM200A (11744735_a_at) / Fold change /veh TMEM200A (11744735_a_at) / RFU CCDC152 (11751479_a_at) / Fold change /veh CCDC152 (11751479_a_at) / RFU FAM211A (11726209_a_at) / Fold change /veh FAM211A (11726209_a_at) / RFU RGS16 (11746705_a_at) / Fold change /veh RGS16 (11746705_a_at) / RFU VCAN (11755009_s_at) / Fold change /veh VCAN (11755009_s_at) / RFU RHOB (11743442_s_at) / Fold change /veh RHOB (11743442_s_at) / RFU RGS16 (11720943_a_at) / Fold change /veh RGS16 (11720943_a_at) / RFU RGS16 (11720944_at) / Fold change /veh RGS16 (11720944_at) / RFU, VPS4B / Fold change vs veh, VPS4B / RFU, CREB1 / Fold change vs veh, CREB1 / RFU, DNAJC13 / Fold change vs veh, DNAJC13 / RFU, GNAQ / Fold change vs veh, GNAQ / RFU, CDK5R1 / Fold change vs veh, CDK5R1 / RFU, ZRANB3 / Fold change vs veh, ZRANB3 / RFU, CUL4A / Fold change vs veh, CUL4A / RFU, CCNY / Fold change vs veh, CCNY / RFU, UFL1 / Fold change vs veh, UFL1 / RFU, COG3 / Fold change vs veh, COG3 / RFU, DIAPH2 / Fold change vs veh, DIAPH2 / RFU, SKA2 / Fold change vs veh, SKA2 / RFU, AFF3 / Fold change vs veh, AFF3 / RFU, LMF1 / Fold change vs veh, LMF1 / RFU, IPO11 / Fold change vs veh, IPO11 / RFU, DFFB / Fold change vs veh, DFFB / RFU, FOXP1 / Fold change vs veh, FOXP1 / RFU, CARD8 / Fold change vs veh, CARD8 / RFU, STRN3 / Fold change vs veh, STRN3 / RFU, ADK / Fold change vs veh, ADK / RFU, RASSF2 / Fold change vs veh, RASSF2 / RFU, WIPF1 / Fold change vs veh, WIPF1 / RFU, LARP1B / Fold change vs veh, LARP1B / RFU, RASA1 / Fold change vs veh, RASA1 / RFU, RB1 / Fold change vs veh, RB1 / RFU, PPFIA1 / Fold change vs veh, PPFIA1 / RFU, MAT2A / Fold change vs veh, MAT2A / RFU, CCT5 / Fold change vs veh, CCT5 / RFU, WDR92 / Fold change vs veh, WDR92 / RFU, CUX1 / Fold change vs veh, CUX1 / RFU, TTC7A / Fold change vs veh, TTC7A / RFU, TMEM135 / Fold change vs veh, TMEM135 / RFU, DEPTOR / Fold change vs veh, DEPTOR / RFU, CPM / Fold change vs veh, CPM / RFU, DNAJB6 / Fold change vs veh, DNAJB6 / RFU, CACNA2D3 / Fold change vs veh, CACNA2D3 / RFU, DTX4 / Fold change vs veh, DTX4 / RFU, TFCP2 / Fold change vs veh, TFCP2 / RFU, GMCL1 /// GMCL1P1 / Fold change vs veh, GMCL1 /// GMCL1P1 / RFU, AEBP2 / Fold change vs veh, AEBP2 / RFU, SNHG1 /// SNORD22 /// SNORD25 /// SNORD26 /// SNORD27 /// SNORD28 /// SNORD29 /// SNORD31 / Fold change vs veh, SNHG1 /// SNORD22 /// SNORD25 /// SNORD26 /// SNORD27 /// SNORD28 /// SNORD29 /// SNORD31 / Fold change (Aza/veh), C12orf56 (ProbeSet 11735607_a_at) / Fold change (ACY-1035/veh), C12orf56 (ProbeSet 11735607_a_at) / Fold change (Aza/veh), FGFR1OP (ProbeSet 11751329_s_at) / Fold change (ACY-1035/veh), FGFR1OP (ProbeSet 11751329_s_at) / Fold change (Aza/veh), VPS36 (ProbeSet 11739960_a_at) / Fold change (ACY-1035/veh), VPS36 (ProbeSet 11739960_a_at) / RFU SYPL1 (11715823_x_at) / Fold change /veh SYPL1 (11715823_x_at) / RFU IGFBP7 (11715501_s_at) / Fold change /veh IGFBP7 (11715501_s_at) / RFU REEP3 (11722064_at) / Fold change /veh REEP3 (11722064_at) / RFU IGLL1 (11728026_x_at) / Fold change /veh IGLL1 (11728026_x_at): dose or concentration left out as unconfirmed. Particulars: ProbeSet 11752001_a_at; LIST D.

For the compound `Nc1ncn([C@@H]2O[C@H](CO)[C@@H](O)[C@H]2O)c(=O)n1` [azacitidine], the “Fold change vs veh, CUL4A” value was 0.81.
